Test results reported in patent publication US10093675B2, “6,8-disubstituted-9-(heterocyclyl)purines, compositions containing these derivatives and their use in cosmetic and medicinal applications” (USTAV EXPERIMENTALNI BOTANIKY AV CR, V.V.I., priority 2014, dated 2018).
Like-named read-outs stand apart in the source and are kept apart here.

Tests used:
[1] = test system: erytroid leukemia cell line K-562; assay: In vitro cytotoxic activity (Calcein AM), K-562; assay type: cell-based, human; conditions: read-out: Cell line tested/IC50 (μmol/L) K-562
From the text: (§1) Because toxic compounds negatively influence metabolic processes of cells, many standard cytotoxicity assays are based on measurement of metabolisation rate of various artificial substrates. Resulting product is then quantified, for example, by means of spectrometry. The assays can be easily modified for use in 96-well plates. For evaluation of cytotoxicity of the […] of this invention, a microtiter assay based on quantification of metabolisation of Calcein AM was used. The assay is widely used in drug screening programs and in chemosensitivity testing. In live cells, Calcein AM is enzymatically hydrolysed and accumulation of resulting calcein is manifested by green fluorescence.
(§2) The following human cell lines were used for routine screening of the compounds: normal diploid fibroblasts BJ, T-lymphoblastic leukemia cell line CEM, promyelocytic leukemia cell line HL-60, erytroid leukemia cell line K-562, breast carcinoma cell line MCF-7, osteosarcoma cell line HOS and melanoma cell line G-361. The cells were maintained in Nunc/Corning 80 cm^2 plastic tissue culture flasks and cultured in cell culture medium (DMEM with 5 g/l glucose, 2 mM glutamine, 100 U/ml penicillin, 100 mmg/ml streptomycin, 10% fetal calf serum and sodium bicarbonate). The cell suspensions were prepared and diluted according to the particular cell type and the expected target cell density (2.500-30.000 cells per well based on cell growth characteristics) and pipetted (80 μl) into 96-well plates. Inoculates were allowed a pre-incubation period of 24 hours at 37° C. and 5% CO2 for stabilization. Tested compound was added in total volume of 20 μl of water at time zero. Usually, test compound was evaluated at six 3-fold dilutions. In routine testing, the highest concentration tested was 100 μM, but it could have been adjusted because of limited solubility of a compound. All drug concentrations were tested in triplicates.
(§3) Incubations of cells with the test compounds lasted for 72 hours at 37° C., in 5% CO2 atmosphere and 100% humidity. At the end of incubation period Calcein AM in PBS was added into final concentration of 1 μg/ml. After another 1 hour of incubation fluorescence (FD) was measured with the Labsystem FIA Reader Fluoroscan Ascent (UK). Growth inhibition (GI) was estimated using the following equitation: GI=(mean FDdrug exposed wells−mean FDblank)/(mean FDcontrol wells−mean FDblank)×100%. The GI50 value, the drug concentration causing 50% reduction of Calcein AM conversion, was calculated from the obtained dose response curves.

[2] = test system: osteosarcoma cell line HOS; assay: In vitro cytotoxic activity (Calcein AM), HOS; assay type: cell-based, human; conditions: 72 hours, read-out: Cell line tested/IC50 (μmol/L) HOS
From the text: as §1, §2, §3

[3] = test system: T-lymphoblastic leukemia cell line CEM; assay: In vitro cytotoxic activity (Calcein AM), CEM; assay type: cell-based, human; conditions: 72 hours, read-out: Cell line tested/IC50 (μmol/L) CEM
From the text: as §1, §2, §3

[4] = test system: Human diploid fibroblast BJ; assay: In vitro cytotoxic activity (MTT); assay type: cell-based; conditions: 72 hours incubation; concentration causing 20% decrease in mitochondrial dehydrogenase activity
Experimental: MTT (metabolic tetrazolium toxicity) assay is a standard colorimetric assay for evaluation of cytotoxicity. Mitochondrial dehydrogenase activity converts yellow MTT into violet formazan which is measured by means of spectrometry.
Human diploid fibroblast BJ (passage 18-22) were seeded into 96-well plate (5.000 cells per well). After 6 hours cultivation medium (DMEM with 5 g/l glucose, 2 mM glutamine, 100 U/ml penicillin, 100 mmg/ml streptomycin, 10% fetal calf serum and sodium bicarbonate) was replaced with the cultivation medium containing test compounds in concentration range of 0-200 µM. Highest concentration was adjusted if the solubility of the compound was limiting. Every concentration was tested in pentaplicate. MTT was added to the cells after 72 hours incubation (final concentration 0.5 mg/ml) and incubation continued for another 3 hours. MTT was solubilised by DMSO and absorbance at 570 nm was measured. Growth inhibition (GI) was estimated using the following equitation: GI=(mean A drug exposed wells−mean Ablank/mean Acontrol wells−mean Ablank)×100%. The GI20 value, the drug concentration causing 20% decrease in mitochondrial dehydrogenase activity, was calculated from the obtained dose response curves.

[5] = test system: normal diploid fibroblasts BJ; assay: In vitro cytotoxic activity (Calcein AM), BJ; assay type: cell-based, human; conditions: 72 hours, read-out: Cell line tested/IC50 (μmol/L) BJ
From the text: as §1, §2, §3

[6] = test system: cytokinin-dependent tobacco callus Nicotiana tabacum L. cv. Wisconsin 38; assay: Plant cell division: growth of cytokinin-dependent tobacco callus; assay type: cell-based; conditions: for Activity (%); (s.d.): relative activity at concentration with highest activity, 10^−6 M kinetin set at 100%; for Concentration with highest activity (mol/l): tobacco callus fresh weight increase after four weeks, tested 10^−8 M to 10^−4 M
Experimental: Cytokinin-dependent tobacco callus Nicotiana tabacum L. cv. Wisconsin 38 was maintained at 25° C. in darkness on modified MS medium, containing 4 μmol/l nicotinic acid, 2.4 μmol/l pyridoxine hydrochloride, 1.2 μmol/l thiamine, 26.6 μmol/l glycine, 1.37 μmol/l glutamine, 1.8 μmol/l myo-inositol, 30 g/l of sucrose, 8 g/l of agar, 5.37 μmol/l NAA and 0.5 μmol/l BAP. Subcultivation was carried out every three weeks. Fourteen days before the bioassay, the callus tissue was transferred to the media without BAP. Biological activity was determined from the increase in fresh callus weight after four weeks of cultivation. Five replicates were prepared for each cytokinin concentration and the entire test was repeated twice. From the obtained data, the concentration with highest activity was selected for each compound tested. Relative activity at this concentration was calculated (see Table 17 below). The activity obtained for 10^−6 M kinetin (Kin) was set as 100%.
The cytokinins to be tested were dissolved in dimethylsulfoxide (DMSO) and the solution brought up to 10^−3M with distilled water.

melanoma cell line G-361 = assay: In vitro cytotoxic activity (Calcein AM), G-361; assay type: cell-based, human; conditions: read-out: Cell line tested/IC50 (μmol/L) G-361
From the text: as §1, §2, §3

[7] = test system: breast carcinoma cell line MCF-7; assay: In vitro cytotoxic activity (Calcein AM), MCF-7; assay type: cell-based, human; conditions: read-out: Cell line tested/IC50 (μmol/L) MCF7
From the text: as §1, §2, §3

[8] = test system: Salmonella typhimurium histidien auxotrophs TA98 and TA100; assay: Ames test; assay type: cell-based; conditions: 2.5 to 5000 μg/plate; presence and absence of Aroclor-induced rat liver S9
Experimental: A number of tests related to the safety of have been carried out using conventionally accepted protocols and procedures. The results of these studies are summarized herein. Tests were carried out using DMSO as solvent and dose levels of compound 21, 24, 26, 27, 39, 41, 45, 48, 50, 52, 53, 54, 55, 56, 63, 64, 66, 67, 68, 69, 70, 71, 72, 74, 76, 124, 125, 126, 127, 128, 129, 130, 145, 146, 147, 149, 150, 151, 208, 216, 218 a 243 at 2.5, 5.0, 15, 50, 500, 1500, and 5000 μg/plate based upon standard protocol and procedures (Ames et al., Mutation Research, 31, 347-364 (1975); Maron et al., Mutation Research, 113, 173-215 (1983)).

| SMILES | IC50 ([1]; Homo sapiens, K562, 72 hours) | IC50 ([2]; Homo sapiens) | IC50 ([3]; Homo sapiens) | GI20 [4] | IC50 ([5]; Homo sapiens, Fibroblast) | Activity (%); (s.d.) [6] | IC50 (melanoma cell line G-361; Homo sapiens, G-361, 72 hours) | IC50 ([7]; Homo sapiens, MCF7, 72 hours) | IC50 ([1]; 72 hours) | IC50 [2] | IC50 [3] | IC50 [5] | Concentration with highest activity (mol/l) [6] | IC50 (melanoma cell line G-361; 72 hours) | IC50 ([7]; 72 hours) | mutagenic response [8] |
| --- | --- | --- | --- | --- | --- | --- | --- | --- | --- | --- | --- | --- | --- | --- | --- | --- |
| CC(C)=CCNc1ncnc2c1nc(Cl)n2C1CCCCO1 (stereo not shown) [Compound 3, 8-Chloro-6-(3-methylbut-2-en-1-ylamino)-9-(tetrahydropyran-2-yl)-9H-purine] | > 50 µmol/L | > 50 µmol/L | > 50 µmol/L | >50 µM | > 50 µmol/L | 118 (±6) % | > 50 µmol/L | > 50 µmol/L | – | – | – | – | – | – | – | – |
| CC(C)=CCNc1ncnc2c1nc(Br)n2C1CCCCO1 (stereo not shown) [Compound 23, 8-Bromo-6-(3-methylbut-2-en-1-ylamino)-9-(tetrahydropyran-2-yl)-9H-purine] | > 50 µmol/L | > 50 µmol/L | > 50 µmol/L | >100 µM | > 50 µmol/L | 125 (±7) % | > 50 µmol/L | > 50 µmol/L | – | – | – | – | – | – | – | – |
| CC(C)=CCNc1ncnc2c1nc(Cl)n2C1CCCO1 (stereo not shown) [Compound 65] | – | – | – | >100 µM | – | 127 (±9) % | – | – | > 50 µmol/L | > 50 µmol/L | > 50 µmol/L | > 50 µmol/L | 10^−6-10^−4 mol/l | > 50 µmol/L | > 50 µmol/L | – |
| COc1nc2c(NCc3ccccc3)ncnc2n1C1CCCCO1 (stereo not shown) [Compound 125] | – | – | – | >100 µM | – | 104 (±2) % | – | – | > 50 µmol/L | > 50 µmol/L | > 50 µmol/L | > 50 µmol/L | 10^−6-10^−4 mol/l | > 50 µmol/L | > 50 µmol/L | no positive mutagenic responses |
| COc1nc2c(NC/C=C(\C)CO)ncnc2n1C1CCCCO1 (stereo not shown) [Compound 126, (E)-6-(4-Hydroxy-3-methylbut-2-en-1-ylamino)-8-methoxy-9-(tetrahydropyran-2-yl)-9H-purine] | > 50 µmol/L | > 50 µmol/L | > 50 µmol/L | >100 µM | > 50 µmol/L | 116 (±6) % | > 50 µmol/L | > 50 µmol/L | – | – | – | – | – | – | – | no positive mutagenic responses |
| COc1nc2c(NCC=C(C)C)ncnc2n1C1CCCCO1 (stereo not shown) [Compound 127, 8-Methoxy-6-(3-methylbut-2-en-1-ylamino)-9-(tetrahydropyran-2-yl)-9H-purine] | > 50 µmol/L | > 50 µmol/L | > 50 µmol/L | >100 µM | > 50 µmol/L | 114 (±6) % | > 50 µmol/L | > 50 µmol/L | – | – | – | – | – | – | – | no positive mutagenic responses |
| COc1cccc(CNc2ncnc3c2nc(OC)n3C2CCCCO2)c1 (stereo not shown) [Compound 128] | – | – | – | >100 µM | – | 121 (±5) % | – | – | > 50 µmol/L | > 50 µmol/L | > 50 µmol/L | > 50 µmol/L | 10^−6-10^−5 mol/l | > 50 µmol/L | > 50 µmol/L | no positive mutagenic responses |
| COc1nc2c(NCc3cccc(O)c3)ncnc2n1C1CCCCO1 (stereo not shown) [Compound 129] | – | – | – | >100 µM | – | 111 (±4) % | – | – | > 50 µmol/L | > 50 µmol/L | > 50 µmol/L | > 50 µmol/L | 10^−6-10^−5 mol/l | > 50 µmol/L | > 50 µmol/L | no positive mutagenic responses |
| COc1nc2c(NCc3cccc(F)c3)ncnc2n1C1CCCCO1 (stereo not shown) [Compound 130] | – | – | – | >100 µM | – | 108 (±3) % | – | – | > 50 µmol/L | > 50 µmol/L | > 50 µmol/L | > 50 µmol/L | 10^−6-10^−4 mol/l | > 50 µmol/L | > 50 µmol/L | no positive mutagenic responses |
| CSc1nc2c(NC/C=C(\C)CO)ncnc2n1C1CCCCO1 (stereo not shown) [Compound 146] | – | – | – | >100 µM | – | 108 (±5) % | – | – | > 50 µmol/L | > 50 µmol/L | > 50 µmol/L | > 50 µmol/L | 10^−6-10^−5 mol/l | > 50 µmol/L | > 50 µmol/L | no positive mutagenic responses |
| CSc1nc2c(NCC=C(C)C)ncnc2n1C1CCCCO1 (stereo not shown) [Compound 147] | – | – | – | >100 µM | – | 112 (±2) % | – | – | > 50 µmol/L | > 50 µmol/L | > 50 µmol/L | > 50 µmol/L | 10^−6-10^−4 mol/l | > 50 µmol/L | > 50 µmol/L | no positive mutagenic responses |
| COc1nc2c(NCC=C(C)C)ncnc2n1C1CCCO1 (stereo not shown) [Compound 207] | – | – | – | >100 µM | – | 114 (±3) % | – | – | > 50 µmol/L | > 50 µmol/L | > 50 µmol/L | > 50 µmol/L | 10^−6-10^−4 mol/l | > 50 µmol/L | > 50 µmol/L | – |
| COc1cccc(CNc2ncnc3c2nc(OC)n3C2CCCO2)c1 (stereo not shown) [Compound 209] | – | – | – | >100 µM | – | 112 (±4) % | – | – | > 50 µmol/L | > 50 µmol/L | > 50 µmol/L | > 50 µmol/L | 10^−6-10^−4 mol/l | > 50 µmol/L | > 50 µmol/L | – |
